Data published in patent publication US9738656B2, “Pyranodipyridine compound” (Eisai R&D Management Co., Ltd., priority 2015, dated 2017).
Where two headings read alike, the source gives them in different places.

Legend:
AMPA receptor = test: AMPA-induced intraneuronal calcium entry-suppressing action (primary culture of embryonic rat cerebral cortex neurons, Fura 2-AM); format: cell-based; settings: AMPA stimulation, intracellular calcium increase, read-out: IC50 for AMPA inhibition
From the text: The present inventors conducted the following tests, in order to confirm the effects of the compounds of the present invention. With regard to the AMPA receptor inhibitory action of the compounds, AMPA-induced intraneuronal calcium entry-suppressing action was examined using a primary culture system of embryonic rat cerebral cortex neurons. With regard to the anticonvulsant action of the compounds, 6 Hz (44 mA) stimulation-induced convulsions known as a treatment-resistant convulsion model were used. AMPA inhibitor-induced central nervous system depressant action such as loss of coordination was evaluated using a rotarod performance test.
AMPA-Induced Intraneuronal Calcium Entry-Suppressing Action
<Culture conditions> Whole fetuses were removed from the uteri of Wistar rats at embryonic day 18 (Charles River Japan) anesthetized with isoflurane. Whole brains were removed from the whole fetuses, and the cerebral cortex was separated in Leibovitz's L-15 medium or Hanks balanced salt solution containing 20% fetal bovine serum. The resulting material was treated with trypsin/DNase solution at 37° C. for 45 to 60 minutes. After the serum was added to stop the trypsin reaction, the resulting material was centrifuged at 1200 to 1500 rpm for 3 to 5 minutes. After the supernatant was removed, Neurobasal medium (containing 2% B-27 supplement and the like; hereinafter “Neurobasal medium”) was added, and the cells were uniformly dispersed by gently pipetting. The cell suspension was slightly stirred, and then filtered through a nylon mesh filter. Viable cells were counted using a hemocytometer, and diluted with Neurobasal medium to 8 to 10×10^5 cells/mL. The cells were seeded into 96 well plates at 100 μL per well and cultured in a CO2 incubator (5% CO2, 37° C.). The medium was replaced after 24 hours, and neurons cultured for 7 to 21 days were used.
On the day of the assay, the medium was removed and replaced with a calcium measurement solution containing 5 to 10 μmol/L of Fura 2-AM (140 mmol/L sodium chloride, 5 mmol/L potassium chloride, 2 mmol/L magnesium chloride, 3 mmol/L calcium chloride, 24 mmol/L D(+)-glucose, 10 mmol/L HEPES, 1 μmol/L MK-801, pH 7.4), and the cells were treated in a CO2 incubator (5% CO2, 37° C.) for 1 to 2 hours. The calcium measurement solution containing the Fura-2 AM solution was subsequently removed, and the neurons in each well were washed twice with the calcium measurement solution for each well, and then 50 μL of the calcium measurement solution was added to each well. Subsequently, 50 μL of a test compound or medium prepared at a concentration 3-fold higher than the final concentration was added, and the cells were pre-treated for about 15 minutes. The plates were subsequently placed on the Fluorescence Drug Screening System 6000 (Hamamatsu Photonics K.K.). The cells were stimulated by adding to each well 50 μL of an AMPA stimulating solution prepared to 3.3 μmol/L with the calcium measurement solution. Changes in calcium concentration were measured as the changes in fluorescence intensity at excitation wavelengths of 340 nm and 380 nm (measurement wavelength: 540 nm). The rate of change of the intracellular calcium concentration was calculated according to the following equation: Rate of increase of the intracellular calcium concentration (% control)=(Tpost−Tpre)/(Cpost−Cpre)×100
wherein Tpost: the proportion of fluorescence of sample wells after stimulation; Tpro: the proportion of fluorescence of sample wells before stimulation; Cpost: the proportion of fluorescence of control wells after stimulation; and Cpre: the proportion of fluorescence of control wells before stimulation.
The IC50 value of the test compound for AMPA inhibition was determined from the rates of increase of the intracellular calcium concentration at various concentrations.

male ddY mice [1] = test: Rotarod performance test-1; format: in vivo; settings: oral, 25 minutes after administration, dose at which time of fall is reduced to 50% of medium control
Description: (§1) With regard to the AMPA receptor inhibitory action of the compounds, AMPA-induced intraneuronal calcium entry-suppressing action was examined using a primary culture system of embryonic rat cerebral cortex neurons. […] AMPA inhibitor-induced central nervous system depressant action such as loss of coordination was evaluated using a rotarod performance test.
Rotarod Performance Test-1
(§2) A rotarod (MK-660C from Muromachi Kikai Co., Ltd.) was used for the measurement. The rod (bar) was controlled to be gradually accelerated from its stationary state to a speed of 40 rotations/minute after 180 seconds. As the animals, 5 or 6-week-old male ddY mice (Japan SLC, Inc.) were used. On the day on which the test was performed, the mice were trained under the above-described measurement conditions, and mice that were able to ride on the rod for 1 minute or longer with good reproducibility were selected and subjected to the test.
Each of the compounds was dissolved in a medium (a solution prepared by adding DMSO to a 0.5% methylcellulose solution to a final concentration of 10%. As required, 0.5 to 5% of 1 mol/L hydrochloric acid and 5% Cremophor™ were added), and then orally administered to the mice in optimum four doses between 0.5 to 10 mg/kg. As the control, only the medium was orally administered. After a lapse of 25 minutes from the oral administration of each compound, the mice were subjected to the rotarod performance test. Five to twenty-five mice were used for each compound group.

male ddY mice [2] = test: Murine 6 Hz convulsion models (6 Hz, 44 mA corneal stimulation); format: in vivo; settings: for ED50: Mus musculus, 25 min; for Therapeutic Index: TD50/ED50 (rotarod test-1 / 6 Hz convulsion model)
Description: as §1
Immediately after the rotarod performance test-1 was completed, the cornea was stimulated by passing an electrical current (6 Hz, 44 mA, 0.2-millisecond pulse, for 3 seconds) from a copper electrode moistened with physiological saline, and the presence or absence of the development of a seizure was observed. The seizure was determined by the development of akinesia, jaw and forelimb clonus, whisker tremors, and Straub tail.
Further, for the purpose of evaluating the safety margin of each of the compounds of the present invention, the therapeutic index (TD50/ED50) was calculated by comparing the seizure inhibitory action (ED50) in the 6 Hz convulsion models and the neurotoxic action (TD50) in the rotarod performance test-1.

male ddY mice [3] = test: Rotarod performance test-2; format: in vivo; settings: for Time of Fall: mice, oral at the ED50 dose of the 6 Hz model, 25 minutes after administration; for Ratio Relative to the Control Compound: time of fall relative to control compound
Description: Rotarod Performance Test-2
as §2
As the control, only the medium was orally administered. After a lapse of 25 minutes from the oral administration of each compound, the mice were subjected to the rotarod performance test. Five or six mice were used for each compound group. For each compound, the time until the mice fell from the rotarod was measured.

[4] = mice, 6 Hz 44 mA stimulation-induced seizure, oral, after rotarod test-1 (25 minutes after administration), read-out: ED50

SMILES | IC50 (AMPA receptor) [nM] | TD50 (male ddY mice [1]) | ED50 (male ddY mice [2]; po) [mg/kg] | Therapeutic Index (male ddY mice [2]; mice) | Time of Fall (male ddY mice [3]; Table 3) [s] | Ratio Relative to the Control Compound (male ddY mice [3]; Table 3) | Time of Fall (male ddY mice [3]; Table 4) [s] | Ratio Relative to the Control Compound (male ddY mice [3]; Table 4) | ED50 (male ddY mice [2]; [4]) [mg/kg]
N#Cc1ncccc1-c1cc2c(n(-c3ccccc3)c1=O)COc1cc(F)cnc1-2 [Example 13, 3-(3-fluoro-8-oxo-7-phenyl-7,8-dihydro-6H-pyrano[3,2-b:5,4-b′]dipyridin-9-yl)picolinonitrile] | 67.5 | 3.89 mg/kg, p.o. | 2.25 | 1.73 | 84.8 | 7.0 |  |  | 
N#Cc1c(F)cccc1-c1cc2c(n(-c3cccnc3)c1=O)COc1cc(F)cnc1-2 [Example 14, 2-fluoro-6-(3-fluoro-8-oxo-7-(pyridin-3-yl)-7,8-dihydro-6H-pyrano[3,2-b:5,4-b′]dipyridin-9-yl)benzonitrile] | 19.4 | 4.76 mg/kg, p.o. | 2.09 | 2.27 |  |  | 139.2 | 9.7 | 
N#Cc1c(F)cccc1-c1cc2c(n(-c3cncc(F)c3)c1=O)COc1cccnc1-2 [Example 15, 2-fluoro-6-(7-(5-fluoropyridin-3-yl)-8-oxo-7,8-dihydro-6H-pyrano[3,2-b:5,4-b′]dipyridin-9-yl)benzonitrile] | 8.2 | 2.67 mg/kg, p.o. | 1.41 | 1.89 |  |  | 100.0 | 7.0 | 
N#Cc1c(F)cccc1-c1cc2c(n(-c3cccnc3)c1=O)COc1cccc(F)c1-2 [Example 16, 2-fluoro-6-(10-fluoro-3-oxo-4-(pyridin-3-yl)-4,5-dihydro-3H-chromeno[3,4-b]pyridin-2-yl)benzonitrile] | < 8 | 1.73 mg/kg, p.o. | 1.05 | 1.65 |  |  | 92.8 | 6.5 | 
O=c1c(-c2cccc(F)c2Cl)cc2c(n1-c1cncc(F)c1)COc1cccnc1-2 [Example 17, 9-(2-chloro-3-fluorophenyl)-7-(5-fluoropyridin-3-yl)-6H-pyrano[3,2-b:5,4-b′]dipyridin-8(7H)-one] | 17.7 | 4.27 mg/kg, p.o. | 2 | 2.14 |  |  | 147.0 | 10.3 | 
N#Cc1c(F)cccc1-c1cc2c(n(-c3cncnc3)c1=O)COc1cccnc1-2 [Example 18, 2-fluoro-6-(8-oxo-7-(pyrimidin-5-yl)-7,8-dihydro-6H-pyrano[3,2-b:5,4-b′]dipyridin-9-yl)benzonitrile] | 29 | 4.03 mg/kg, p.o. | 2 | 2.02 |  |  | 102.2 | 7.1 | 
N#Cc1c(F)ccc(F)c1-c1cc2c(n(-c3cccnc3)c1=O)COc1cccnc1-2 [Example 19, 3,6-difluoro-2-(8-oxo-7-(pyridin-3-yl)-7,8-dihydro-6H-pyrano[3,2-b:5,4-b′]dipyridin-9-yl)benzonitrile] | 23.4 | 3.25 mg/kg, p.o. | 2 | 1.63 |  |  | 121.7 | 8.5 | 
N#Cc1c(F)cccc1-c1cc2c(n(-c3cncc(Cl)c3)c1=O)COc1cccnc1-2 [Example 20, 2-(7-(5-chloropyridin-3-yl)-8-oxo-7,8-dihydro-6H-pyrano[3,2-b:5,4-b′]dipyridin-9-yl)-6-fluorobenzonitrile] | 8.26 | 4.74 mg/kg, p.o. | 2.47 | 1.91 |  |  | 71.3 | 5.0 | 
Cc1ncc(-n2c3c(cc(-c4cccc(F)c4C#N)c2=O)-c2ncccc2OC3)cn1 [Example 21, 2-fluoro-6-(7-(2-methylpyrimidin-5-yl)-8-oxo-7,8-dihydro-6H-pyrano[3,2-b:5,4-b′]dipyridin-9-yl)benzonitrile] | 44.3 | 5.30 mg/kg, p.o. |  | 2.12 |  |  | 118.7 | 8.3 | 2.5
Cc1c(F)cccc1-c1cc2c(n(-c3cccnc3)c1=O)COc1cccnc1-2 [Example 22, 9-(3-fluoro-2-methylphenyl)-7-(pyridin-3-yl)-6H-pyrano[3,2-b:5,4-b′]dipyridin-8(7H)-one] | 53.3 | 6.19 mg/kg, p.o. |  | 1.91 |  |  | 102.8 | 7.2 | 3.23
O=c1c(-c2c(F)cccc2F)cc2c(n1-c1cccnc1)COc1cccnc1-2 [Referential Example 1, 9-(2,6-difluorophenyl)-7-(pyridin-3-yl)-6H-pyrano[3,2-b:5,4-b′]dipyridin-8(7H)-one] | 44.1 | 5.16 mg/kg, p.o. |  | 3.66 | 110.7 | 9.1 |  |  | 1.41
